In patent publication US7420100B2, “Methods and compositions relating to HDAC 4 and 5 regulation of cardiac gene expression” (Board of Regents, The University of Texas System, priority 1999, dated 2008):

Tests used:
[1] = test system: hypertrophic response to endothelin-1; conditions: in vitro; cited from earlier work
cultured cardiomyocytes = conditions: α-adrenergic stimulation and Ca2+ channel agonists; cited from earlier work
[2] = test system: HDAC 5-green fluorescent protein (GFP) chimeric molecule; experiment: subcellular distribution of HDAC 5-GFP in CaMKI-expressing cells exposed to leptomycinB; format: cell-based; conditions: CaMKI-expressing cells treated with leptomycinB
Description: In principle, nuclear exclusion of HDAC 5 could result from inhibition of nuclear import or stimulation of nuclear export. To distinguish between these possibilities, the subcellular distribution of an HDAC 5-green fluorescent protein (GFP) chimeric molecule was monitored in cells exposed to leptomycinB, a fungal toxin that blocks nuclear export. In CaMK1 expressing cells, HDAC 5 is localized to the cytoplasm.

BZLF1 = conditions: cited from earlier work
[3] = test system: GAL4-MEF2C fusion protein; experiment: activation of GAL4-MEF2C fusion protein in cardiomyocytes; format: cell-based, rat; conditions: stimulation of cardiomyocytes
Procedure: Preparation of primary rat cardiomyocytes. Cardiomyocyte cultures are prepared by dissociation of 1-day old neonatal rat hearts and were differentially plated to remove fibroblasts. To induce the hypertrophic response, AngII and PE are added to cardiomyocyte cultures at 10 nM and 10 μM, respectively, in serum-free M199 media. The culture media containing either agonist is changed every 12 hours for a period of 72 hours.
In light of the ability of MEF2 to respond to calcium-dependent signal transduction pathways in T cells, the inventors have investigated whether the same pathways also activate MEF2 in cardiomyocytes. […] When the C-terminus of MEF2C, which contains the transcription activation domains (TADs), but lacks the MADS and MEF2 domains required for DNA binding and dimerization, is fused to the DNA binding domain of the yeast transcription factor GAL4, the resulting GAL4-MEF2C fusion protein retains sensitivity to calcineurin and CaMKIV. This GAL4-MEF2C fusion protein is also activated by stimulation of cardiomyocytes with the hypertrophic agonist phenylephrine (PE).

## COc1ccc(S(=O)(=O)N(CCO)c2ccccc2CN(C)C/C=C/c2ccc(Cl)cc2)cc1 [KN-93]
[1]
  effect on hypertrophic response to endothelin-1: can block the hypertrophic response

## NCCCCCCNS(=O)(=O)c1cccc2c(Cl)cccc12 [W-7]
Cultured cardiomyocytes
  effect on hypertrophy: prevents hypertrophy

## CCC(=C/[C@H](C)C/C=C/C(C)=C/[C@@H](C)C(=O)[C@@H](C)[C@H](O)[C@@H](C)C/C(C)=C/C(=O)O)/C=C/[C@@H]1OC(=O)C=C[C@@H]1C [leptomycinB]
[2]
  subcellular localization of HDAC 5: translocation of HDAC 5 from the cytoplasm to the nucleus
  time course of HDAC 5 translocation from cytoplasm to nucleus: 4 h

## cyclosporin A [CsA]
BZLF1
  effect on BZLF1 transcription: inhibited

## CNC[C@H](O)c1cccc(O)c1 [phenylephrine]
[3]
  activation of GAL4-MEF2C fusion protein: activated
